# Test results from ChEMBL document CHEMBL1124314, “Development of phosphonate derivatives of gadolinium chelates for NMR imaging of calcified soft tissues” (J Med Chem, 1989).
# Key:
# Rattus norvegicus [1] = species: Rattus norvegicus; test: Biodistribution in rat bone in the presence of NCAGd/0.01 M lig; assay type: ADME, organism-based, Bone element; conditions: in vivo
# Rattus norvegicus [2] = species: Rattus norvegicus; test: Biodistribution in rat heart in the presence of NCAGd/0.01 M lig; assay type: ADME, organism-based; conditions: in vivo
# Rattus norvegicus [3] = species: Rattus norvegicus; test: Biodistribution in rat muscle in the presence of NCAGd/0.01 M lig; assay type: ADME, organism-based, Muscle tissue; conditions: in vivo
# Rattus norvegicus [4] = species: Rattus norvegicus; test: Biodistribution in rat liver by in the presence of NCAGd/0.01 M lig; assay type: ADME, organism-based; conditions: in vivo
# Rattus norvegicus [5] = species: Rattus norvegicus; test: Biodistribution in rat blood in the presence of NCAGd/0.01 M lig; assay type: ADME, organism-based; conditions: in vivo
# Rattus norvegicus [6] = species: Rattus norvegicus; test: Uptake of [GD] in bone 1 hr post injection with 0.01(A) of the compound; assay type: functional, Bone element
# Rattus norvegicus [7] = species: Rattus norvegicus; test: Uptake of [GD] in bone 1 hr post injection with 0.01(N) of the compound; assay type: functional, Bone element
# Rattus norvegicus [8] = species: Rattus norvegicus; test: Uptake of [GD] in bone 1 hr post injection with NCA GD dose; assay type: functional, Bone element
# [9] = Ratio of uptake of [GD] in bone 1 hr post injection with 0.01(A) to that of blood; assay type: functional
# [10] = Ratio of uptake of [GD] in bone 1 hr post injection with 0.01(A) to that of muscle; assay type: functional
# [11] = Ratio of uptake of [GD] in bone 1 h post injection with 0.01(N) to that of blood; assay type: functional
# Rattus norvegicus [12] = species: Rattus norvegicus; test: Biodistribution in rat spleen in the presence of NCAGd/0.01 M lig; assay type: ADME, organism-based; conditions: in vivo
# Rattus norvegicus [13] = species: Rattus norvegicus; test: Biodistribution in rat kidney in the presence of NCAGd/0.01 M lig; assay type: ADME, organism-based; conditions: in vivo
# [14] = Ratio of uptake of [GD] in bone 1 hr post injection with 0.01(N) to that of muscle; assay type: functional
smiles,measurement,setting,value
OC(CNCCNCC(O)c1ccccc1)c1ccccc1 (centres undefined),ID/organ,Rattus norvegicus [1],56.8%
same,ID/organ,Rattus norvegicus [2],0.34%
same,ID/organ,Rattus norvegicus [3],6.09%
same,ID/organ,Rattus norvegicus [4],20.9%
same,ID/organ,Rattus norvegicus [5],2.35%
same,ID,Rattus norvegicus [6],6.37%
same,ID,Rattus norvegicus [7],6.36%
same,ID,Rattus norvegicus [8],56.8%
same,Ratio,[9],0.139%
same,Ratio,[10],1.6%
same,Ratio,[11],0.188
same,ID/organ,Rattus norvegicus [12],0.135%
same,ID/organ,Rattus norvegicus [13],3.57%
same,Ratio,[14],2.14%
